Data reported in US8618085B2, “Therapeutic formulations of desoxyepothilones” (Koasn Biosciences Incorporated, priority 2000, dated 2013).

Experiment: Dilution stability of epothilone D formulations, visual appearance
Format: physicochemical
Set-up: key: remained clear; ppt: precipitation; xtal: crystallization
Conditions: for Visual Appearance RODI Dilution 0 h / Visual Appearance RODI Dilution 12 h / Visual Appearance RODI Dilution 24 h / Visual Appearance RODI Dilution 36 h / Visual Appearance RODI Dilution 48 h: 1:10 into RODI water; for Visual Appearance Initial: undiluted
Protocol: The dilution stability of epothilone D formulations at 8-20 mg/mL in various formulations was examined. A stock solution of epothilone D (100 mg/mL) was prepared in ethanol. Epothilone D formulations were prepared as listed in the following tables by addition of the requisite amount of ethanol, PEG400, 10% Tween® 80, and either propylene glycol or glycerol to the appropriate volume of the epothilone D stock solution. The solubility of epothilone D in each vial was observed visually following gentle swirling. Each formulation was syringe filtered through a 0.2 micron PVDF filter. Each formulation was subsequently diluted 1:8, 1:10, or 1:12 in reverse osmosis deionized water (RODI) or 0.9% saline. Visual observations were taken upon preparation, upon dilution, and both 1 and 24 hours after incubation at ambient temperature.
The dilution stability up to 48 hours post-dilution was examined for the above formulations containg 8-11 mg/mL of epothilone D after 1:10 dilution into either RODI water or 0.45% saline, as summarized in Tables 12 and 13 below.

[1] = 8 mg/mL epo D in 10% Tween 80, 50% ethanol, 30% PEG400, 10% propylene glycol
[2] = 8 mg/mL epo D in 10% Tween 80, 50% ethanol, 30% PEG400, 10% propylene glycol, 0.9% saline
[3] = 8 mg/mL epo D in 10% Tween 80, 50% ethanol, 30% PEG400, 10% propylene glycol, 1:10 into 0.45% saline
[4] = 8 mg/mL epo D in 10% Tween 80, 60% ethanol, 20% PEG400, 10% glycerol
[5] = 8 mg/mL epo D in 10% Tween 80, 60% ethanol, 20% PEG400, 10% glycerol, 0.9% saline
[6] = 8 mg/mL epo D in 10% Tween 80, 60% ethanol, 20% PEG400, 10% glycerol, 1:10 into 0.45% saline
[7] = 9 mg/mL epo D in 10% Tween 80, 50% ethanol, 30% PEG400, 10% propylene glycol, 1:10 into 0.45% saline
[8] = 9 mg/mL epo D in 10% Tween 80, 50% ethanol, 30% PEG400, 10% propylene glycol
[9] = 9 mg/mL epo D in 10% Tween 80, 60% ethanol, 20% PEG400, 10% glycerol, 1:10 into 0.45% saline
[10] = 9 mg/mL epo D in 10% Tween 80, 60% ethanol, 20% PEG400, 10% glycerol
[11] = 10 mg/mL epo D in 10% Tween 80, 50% ethanol, 30% PEG400, 10% propylene glycol
[12] = 10 mg/mL epo D in 10% Tween 80, 50% ethanol, 30% PEG400, 10% propylene glycol, 0.9% saline
[13] = 10 mg/mL epo D in 10% Tween 80, 50% ethanol, 30% PEG400, 10% propylene glycol, 1:10 into 0.45% saline
[14] = 10 mg/mL epo D in 10% Tween 80, 60% ethanol, 20% PEG400, 10% glycerol
[15] = 10 mg/mL epo D in 10% Tween 80, 60% ethanol, 20% PEG400, 10% glycerol, 0.9% saline
[16] = 10 mg/mL epo D in 10% Tween 80, 60% ethanol, 20% PEG400, 10% glycerol, 1:10 into 0.45% saline

## C/C1=C/CC(/C(C)=C/c2csc(C)n2)OC(=O)C[C@H](O)C(C)(C)C(=O)[C@H](C)[C@@H](O)[C@@H](C)CCC1 (some centres unmarked) [Epothilone D, Desoxyepothilone B]
[1]
  Visual Appearance RODI Dilution 1:08 0 h: clear
  Visual Appearance RODI Dilution 1:08 24 h: clear
  Visual Appearance RODI Dilution 1:10 0 h: clear
  Visual Appearance RODI Dilution 1:10 24 h: clear
  Visual Appearance RODI Dilution 1:12 0 h: clear
  Visual Appearance RODI Dilution 1:12 24 h: clear
  Visual Appearance RODI Dilution 0 h: clear
  Visual Appearance RODI Dilution 12 h: clear
  Visual Appearance RODI Dilution 24 h: clear
  Visual Appearance RODI Dilution 36 h: clear
  Visual Appearance RODI Dilution 48 h: clear
  Visual Appearance Initial: clear
[2]
  Visual Appearance Saline Dilution 1:08 1 h: xtal
  Visual Appearance Saline Dilution 1:10 1 h: xtal
  Visual Appearance Saline Dilution 1:12 1 h: clear
  Visual Appearance Saline Dilution 1:12 24 h: xtal
[3]
  Visual Appearance Saline Dilution 0 h: clear
  Visual Appearance Saline Dilution 12 h: xtal
[4]
  Visual Appearance RODI Dilution 1:08 0 h: clear
  Visual Appearance RODI Dilution 1:08 24 h: clear
  Visual Appearance RODI Dilution 1:10 0 h: clear
  Visual Appearance RODI Dilution 1:10 24 h: clear
  Visual Appearance RODI Dilution 1:12 0 h: clear
  Visual Appearance RODI Dilution 1:12 24 h: clear
  Visual Appearance RODI Dilution 0 h: clear
  Visual Appearance RODI Dilution 12 h: clear
  Visual Appearance RODI Dilution 24 h: clear
  Visual Appearance RODI Dilution 36 h: xtal
  Visual Appearance Initial: clear
[5]
  Visual Appearance Saline Dilution 1:08 1 h: clear
  Visual Appearance Saline Dilution 1:08 24 h: xtal
  Visual Appearance Saline Dilution 1:10 1 h: xtal
  Visual Appearance Saline Dilution 1:12 1 h: xtal
[6]
  Visual Appearance Saline Dilution 0 h: clear
  Visual Appearance Saline Dilution 12 h: xtal
[7]
  Visual Appearance Saline Dilution 0 h: clear
  Visual Appearance Saline Dilution 12 h: xtal
[8]
  Visual Appearance RODI Dilution 0 h: clear
  Visual Appearance RODI Dilution 12 h: clear
  Visual Appearance RODI Dilution 24 h: clear
  Visual Appearance RODI Dilution 36 h: clear
  Visual Appearance RODI Dilution 48 h: clear
[9]
  Visual Appearance Saline Dilution 0 h: clear
  Visual Appearance Saline Dilution 12 h: xtal
[10]
  Visual Appearance RODI Dilution 0 h: clear
  Visual Appearance RODI Dilution 12 h: clear
  Visual Appearance RODI Dilution 24 h: clear
  Visual Appearance RODI Dilution 36 h: xtal
[11]
  Visual Appearance RODI Dilution 1:08 0 h: clear
  Visual Appearance RODI Dilution 1:08 24 h: clear
  Visual Appearance RODI Dilution 1:10 0 h: clear
  Visual Appearance RODI Dilution 1:10 24 h: clear
  Visual Appearance RODI Dilution 1:12 0 h: clear
  Visual Appearance RODI Dilution 1:12 24 h: clear
  Visual Appearance Initial: clear
[12]
  Visual Appearance Saline Dilution 1:08 1 h: xtal
  Visual Appearance Saline Dilution 1:10 1 h: xtal
  Visual Appearance Saline Dilution 1:12 1 h: xtal
[13]
  Visual Appearance Saline Dilution 0 h: clear
  Visual Appearance Saline Dilution 12 h: clear
  Visual Appearance Saline Dilution 24 h: clear
  Visual Appearance Saline Dilution 36 h: xtal
[14]
  Visual Appearance RODI Dilution 1:08 0 h: clear
  Visual Appearance RODI Dilution 1:08 24 h: clear
  Visual Appearance RODI Dilution 1:10 0 h: clear
  Visual Appearance RODI Dilution 1:10 24 h: clear
  Visual Appearance RODI Dilution 1:12 0 h: clear
  Visual Appearance RODI Dilution 1:12 24 h: clear
[15]
  Visual Appearance Saline Dilution 1:08 1 h: clear
  Visual Appearance Saline Dilution 1:08 24 h: xtal
  Visual Appearance Saline Dilution 1:10 1 h: xtal
  Visual Appearance Saline Dilution 1:12 1 h: xtal
[16]
  Visual Appearance Saline Dilution 0 h: clear
  Visual Appearance Saline Dilution 12 h: xtal
